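GI50: concentration for 50% inhibition of growth. At the TGI there is no net growth.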
Assays:
Assay in all cases: inhibition of tumour cell growth, NCI panel, 384-well format
MCF7 breast = tested on: MCF7 breast
UACC-62 melanoma = tested on: UACC-62 melanoma
OVCAR-5 ovarian = tested on: OVCAR-5 ovarian
MDA-MB-231 breast = tested on: MDA-MB-231 breast
RPMI-8226 leukemia = tested on: RPMI-8226 leukemia
MOLT-4 leukemia = tested on: MOLT-4 leukemia
TK-10 renal = tested on: TK-10 renal
HOP-62 NSCLC = tested on: HOP-62 NSCLC
HOP-92 NSCLC = tested on: HOP-92 NSCLC
NCI-H460 NSCLC = tested on: NCI-H460 NSCLC
SK-MEL-5 melanoma = tested on: SK-MEL-5 melanoma
HS 578T breast = tested on: HS 578T breast
KM12 colon = tested on: KM12 colon
CAKI-1 renal = tested on: CAKI-1 renal
SR leukemia = tested on: SR leukemia
IGROV1 ovarian = tested on: IGROV1 ovarian
EKVX NSCLC = tested on: EKVX NSCLC
MDA-MB-468 breast = tested on: MDA-MB-468 breast
LOX IMVI melanoma = tested on: LOX IMVI melanoma
SF-295 CNS = tested on: SF-295 CNS
SNB-19 CNS = tested on: SNB-19 CNS
M14 melanoma = tested on: M14 melanoma
SK-OV-3 ovarian = tested on: SK-OV-3 ovarian
BT-549 breast = tested on: BT-549 breast
A498 renal = tested on: A498 renal
HCT-116 colon = tested on: HCT-116 colon
NCI/ADR-RES ovarian = tested on: NCI/ADR-RES ovarian
HL-60(TB) leukemia = tested on: HL-60(TB) leukemia
T-47D breast = tested on: T-47D breast
OVCAR-4 ovarian = tested on: OVCAR-4 ovarian
PC-3 prostate = tested on: PC-3 prostate
NCI-H23 lung = tested on: NCI-H23 lung
SN12C renal = tested on: SN12C renal
OVCAR-3 ovarian = tested on: OVCAR-3 ovarian
HCC-2998 colon = tested on: HCC-2998 colon
HCT-15 colon = tested on: HCT-15 colon
MDA-MB-435 melanoma = tested on: MDA-MB-435 melanoma
SF-539 CNS = tested on: SF-539 CNS
SK-MEL-28 melanoma = tested on: SK-MEL-28 melanoma
NCI-H226 lung = tested on: NCI-H226 lung
OVCAR-8 ovarian = tested on: OVCAR-8 ovarian
DU-145 prostate = tested on: DU-145 prostate
ACHN renal = tested on: ACHN renal
NCI-H522 lung = tested on: NCI-H522 lung
SNB-75 CNS = tested on: SNB-75 CNS
UACC-257 melanoma = tested on: UACC-257 melanoma
SF-268 CNS = tested on: SF-268 CNS
NCI-H322M lung = tested on: NCI-H322M lung
A549 NSCLC = tested on: A549 NSCLC
MALME-3M melanoma = tested on: MALME-3M melanoma
COLO 205 colon = tested on: COLO 205 colon
RXF 393 renal = tested on: RXF 393 renal
HT29 colon = tested on: HT29 colon
U251 glioblastoma = tested on: U251 glioblastoma

Compound: Clc1ccc(N2CCC(N3CCCC3)CC2)cc1-c1nc2ccccc2[nH]1
- GI50 (MCF7 breast): 12.1 µM
- TGI (MCF7 breast): 25.4 µM
- GI50 (UACC-62 melanoma): 13.5 µM
- TGI (UACC-62 melanoma): 26.6 µM
- GI50 (OVCAR-5 ovarian): 15.8 µM
- TGI (OVCAR-5 ovarian): 30.1 µM
- GI50 (MDA-MB-231 breast): 17 µM
- TGI (MDA-MB-231 breast): 31.2 µM
- GI50 (RPMI-8226 leukemia): 16.1 µM
- TGI (RPMI-8226 leukemia): 29.7 µM
- GI50 (MOLT-4 leukemia): 16.5 µM
- TGI (MOLT-4 leukemia): 30.3 µM
- GI50 (TK-10 renal): 12.4 µM
- TGI (TK-10 renal): 25 µM
- GI50 (HOP-62 NSCLC): 16.1 µM
- TGI (HOP-62 NSCLC): 29.8 µM
- GI50 (HOP-92 NSCLC): 18.4 µM
- TGI (HOP-92 NSCLC): 32.8 µM
- GI50 (NCI-H460 NSCLC): 17.2 µM
- TGI (NCI-H460 NSCLC): 31.4 µM
- GI50 (SK-MEL-5 melanoma): 4.01 µM
- TGI (SK-MEL-5 melanoma): 16 µM
- GI50 (HS 578T breast): 14.8 µM
- TGI (HS 578T breast): 28.1 µM
- GI50 (KM12 colon): 14.8 µM
- TGI (KM12 colon): 29.1 µM
- GI50 (CAKI-1 renal): 16.9 µM
- TGI (CAKI-1 renal): 33.4 µM
- GI50 (SR leukemia): 11.8 µM
- TGI (SR leukemia): 24.2 µM
- GI50 (IGROV1 ovarian): 15.5 µM
- TGI (IGROV1 ovarian): 29.5 µM
- GI50 (EKVX NSCLC): 14.2 µM
- TGI (EKVX NSCLC): 28.1 µM
- GI50 (MDA-MB-468 breast): 14.1 µM
- TGI (MDA-MB-468 breast): 27.3 µM
- GI50 (LOX IMVI melanoma): 16.5 µM
- TGI (LOX IMVI melanoma): 30.2 µM
- GI50 (SF-295 CNS): 17.8 µM
- TGI (SF-295 CNS): 31.8 µM
- GI50 (SNB-19 CNS): 18.2 µM
- TGI (SNB-19 CNS): 37 µM
- GI50 (M14 melanoma): 18 µM
- TGI (M14 melanoma): 32 µM
- GI50 (SK-OV-3 ovarian): 14.1 µM
- TGI (SK-OV-3 ovarian): 27.5 µM
- GI50 (BT-549 breast): 8.67 µM
- TGI (BT-549 breast): 20.9 µM
- GI50 (A498 renal): 14.4 µM
- TGI (A498 renal): 27.6 µM
- GI50 (HCT-116 colon): 11.7 µM
- TGI (HCT-116 colon): 24.7 µM
- GI50 (NCI/ADR-RES ovarian): 15.4 µM
- TGI (NCI/ADR-RES ovarian): 32.5 µM
- GI50 (HL-60(TB) leukemia): 12.3 µM
- TGI (HL-60(TB) leukemia): 25 µM
- GI50 (T-47D breast): 13.9 µM
- TGI (T-47D breast): 27.4 µM
- GI50 (OVCAR-4 ovarian): 11.9 µM
- TGI (OVCAR-4 ovarian): 25.9 µM
- GI50 (PC-3 prostate): 15.1 µM
- TGI (PC-3 prostate): 30.5 µM
- GI50 (NCI-H23 lung): 14.1 µM
- TGI (NCI-H23 lung): 27.7 µM
- GI50 (SN12C renal): 11.8 µM
- TGI (SN12C renal): 24.5 µM
- GI50 (OVCAR-3 ovarian): 14.6 µM
- TGI (OVCAR-3 ovarian): 28 µM
- GI50 (HCC-2998 colon): 12.5 µM
- TGI (HCC-2998 colon): 25.3 µM
- GI50 (HCT-15 colon): 3.84 µM
- TGI (HCT-15 colon): 14.1 µM
- GI50 (MDA-MB-435 melanoma): 17.1 µM
- TGI (MDA-MB-435 melanoma): 30.9 µM
- GI50 (SF-539 CNS): 16.9 µM
- TGI (SF-539 CNS): 30.9 µM
- GI50 (SK-MEL-28 melanoma): 14.9 µM
- TGI (SK-MEL-28 melanoma): 28.3 µM
- GI50 (NCI-H226 lung): 15.2 µM
- TGI (NCI-H226 lung): 28.6 µM
- GI50 (OVCAR-8 ovarian): 16.7 µM
- TGI (OVCAR-8 ovarian): 31.1 µM
- GI50 (DU-145 prostate): 15.3 µM
- TGI (DU-145 prostate): 32.5 µM
- GI50 (ACHN renal): 16.6 µM
- TGI (ACHN renal): 30.8 µM
- GI50 (NCI-H522 lung): 17.7 µM
- TGI (NCI-H522 lung): 31.6 µM
- GI50 (SNB-75 CNS): 16.9 µM
- TGI (SNB-75 CNS): 31 µM
- GI50 (UACC-257 melanoma): 2 µM
- TGI (UACC-257 melanoma): 4.78 µM
- GI50 (SF-268 CNS): 16.3 µM
- TGI (SF-268 CNS): 30.1 µM
- GI50 (NCI-H322M lung): 14.3 µM
- TGI (NCI-H322M lung): 32 µM
- GI50 (A549 NSCLC): 17.2 µM
- TGI (A549 NSCLC): 32.3 µM
- GI50 (MALME-3M melanoma): 13 µM
- TGI (MALME-3M melanoma): 25.8 µM
- GI50 (COLO 205 colon): 14.3 µM
- TGI (COLO 205 colon): 27.6 µM
- GI50 (RXF 393 renal): 15.1 µM
- TGI (RXF 393 renal): 28.6 µM
- GI50 (HT29 colon): 10.9 µM
- TGI (HT29 colon): 23.6 µM
- GI50 (U251 glioblastoma): 16.9 µM
- TGI (U251 glioblastoma): 30.7 µM
